# Assay results from article PMC5643135, “Crystallographic and thermodynamic characterization of phenylaminopyridine bisphosphonates binding to human farnesyl pyrophosphate synthase” (PLoS ONE, 2017).
# Molecular target: T1, human farnesyl pyrophosphate synthase (hFPPS) (Homo sapiens, UniProt P14324)
# T1 construct: gene FDPS; purified protein, homodimer, subunit 42 kDa
# T1 sequence (P14324 1-353 isoform P14324-2): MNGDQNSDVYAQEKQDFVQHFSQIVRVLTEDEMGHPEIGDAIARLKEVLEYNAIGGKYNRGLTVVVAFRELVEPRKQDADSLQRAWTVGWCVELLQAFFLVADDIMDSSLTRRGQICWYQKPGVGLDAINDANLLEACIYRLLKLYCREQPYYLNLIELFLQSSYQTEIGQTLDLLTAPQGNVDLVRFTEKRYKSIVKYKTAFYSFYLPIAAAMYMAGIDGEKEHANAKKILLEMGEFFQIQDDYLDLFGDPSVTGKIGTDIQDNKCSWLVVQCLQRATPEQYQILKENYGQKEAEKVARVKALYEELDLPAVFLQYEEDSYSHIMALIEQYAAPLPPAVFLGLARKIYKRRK
# Assay: ITC, one-site model
# Assay type: binding
# Excerpt: ITC, one-site model on human farnesyl pyrophosphate synthase (hFPPS)
compound,measurement,value
O=P(O)(O)C(Nc1cncc(-c2ccc(OC3CC3)cc2)c1)P(=O)(O)O [JDS05120],Kd,120 ± 36 nM
